Measured values published in patent US8906906B2, “Viral replication inhibitors” (Katholieke Universiteit Leuven, priority 2009, dated 2014).

Columns and labels:
[1] = Cytotoxicity in mock-infected MT-4 cells (MTT); type: cell-based; details: human, read-out: CC50 in MT4-IIIB (μm)
Procedure: A rapid and automated assay procedure was used for the in vitro evaluation of anti-HIV agents. An HTLV-1 transformed T4-cell line MT-4, which was previously shown to be highly susceptible to and permissive for HIV infection, served as the target cell line. Inhibition of the HIV-induced cytopathogenic effect was used as the end point. The viability of both HIV-and mock-infected cells was assessed spectrophotometrically via in situ reduction of 3-(4,5-dimethylthiazol-2-yl)-2,5-diphenyltetrazolium bromide (MTT). The 50% cytotoxic concentration (CC50 in μg/ml) was defined as the concentration of compound that reduced the absorbance of the mock-infected control sample by 50%. The percent protection achieved by the compound in HIV-infected cells was calculated by the following formula: […]
Examples of inhibition of cell proliferation by particular compounds of formula (I) can be found by looking at the respective CC50 values in the MT-4 cell line.
Cells: MT-4 cells (Miyoshi et al., 1982) were grown and maintained in RPMI 1640 medium supplemented with 10% heat-inactivated fetal calf serum, 2 mM I-glutamine, 0.1% sodium bicarbonate, and 20 æg of gentamicin per ml.

HIV (MT4-IIIB) = assay: Anti-HIV activity: inhibition of HIV-induced cytopathogenic effect in MT-4 cells (MTT); type: cell-based; details: Human immunodeficiency virus 1, IIIB
[2] = molecular target: T1, His6-tagged HIV-1 integrase / flag-LEDGF/p75 interaction (Human immunodeficiency virus type 1 group M subtype B, UniProt P04585); assay: AlphaScreen assay of LEDGF-integrase interaction inhibition; type: binding; details: compounds tested from 0.1 up to 100 μM
T1 construct: His6-tagged HIV-1 integrase; made in house
Procedure: Alphascreen Assay to Measure the LEDGF-Integrase Interaction Inhibitory Activity of Compounds of the Invention
The AlphaScreen assay was performed according to the manufacturer's protocol (Perkin Elmer, Benelux). Reactions were performed in 25 μl final volume in 384-well Optiwell™ microtiter plates (Perkin Elmer). The reaction buffer contained 25 mM Tris-HCl (pH 7.4), 150 mM NaCl, 1 mM MgCl2, 0.01% (v/v) Tween-20 and 0.1% (w/v) bovine serum albumin. His6-tagged integrase (300 nM final concentration) was incubated with the compounds for 30 min at 4° C. The compounds were added at varying concentrations spanning a wide range from 0.1 up to 100 μM. Afterwards 100 nM flag-LEDGF/p75 was added and incubation was prolonged for an additional hour at 4° C. Subsequently 5 μl of Ni-chelate-coated acceptor beads and 5 μl anti-flag donor beads were added to a final concentration of 20 μg/ml of both beads. Proteins and beads were incubated for 1 h at 30° C. in order to allow association to occur. Exposure of the reaction to direct light was omitted as much as possible and the emission of light from the acceptor beads was measured in the EnVision plate reader (Perkin Elmer, Benelux) and analyzed using the EnVision manager software. IN/DNA binding was analyzed in a similar setting using His6-tagged integrase (1 μM final concentration) and an oligodeoxynucleotide mimicking the IN ELISA oligonucleotide substrate (30 nM final concentration). Counterscreens with JPO2 or PogZ, respectively, were essentially performed as described previously.
Expression and purification of recombinant proteins: His6-tagged HIV-1 integrase, 3×flag-tagged LEDGF/p75, MBP-JPO2 and MBP-PogZ were purified for AlphaScreen applications as described previously 23,25,56.

Row | SMILES | CC50 [1] | EC50 (HIV (MT4-IIIB)) | IC50 [2]
1 | CCCC(C(=O)O)c1c(C)nc(-c2ccc(C)cc2)nc1-c1ccc(C)cc1 (centres unmarked) [cpd 10] | 110 µM | 35.9 µM | 30.9 µM
2 | CCCC(C(=O)O)c1c(C)nc(N(C)C2CCCCC2)nc1-c1ccc(C)cc1 (centres unmarked) [cpd 12] | 81.8 µM | 48.3 µM | 25.2 µM
3 | CCCC(C(=O)O)c1c(C)nc(-c2ccccc2)nc1-c1ccc(C)cc1 (centres unmarked) [cpd 14] | 120 µM | 23.4 µM | 22.1 µM
4 | CCCC(C(=O)O)c1c(C)nc(-c2ccccc2Cl)nc1-c1ccccc1 (centres unmarked) [cpd 16] | > 250 µM | 152 µM | –
5 | CCCC(C(=O)O)c1c(C)nc(N2CCCCC2)nc1-c1ccccc1 (centres unmarked) [cpd 20] | 120 µM | 15.9 µM | 12.5 µM
6 | CCCC(C(=O)O)c1c(C)nc(N2CCCCC2)nc1-c1ccc(C)cc1 (centres unmarked) [cpd 22] | 100 µM | 9.16 µM | 4.74 µM
7 | CCCC(C(=O)O)c1c(C)nc(-c2ccccc2)nc1-c1ccccc1 (centres unmarked) [cpd 24] | > 125 µM | 80 µM | –
8 | CCCC(C(=O)O)c1c(C)nc(-c2ccccc2)nc1-c1cccc(O)c1 (centres unmarked) [cpd 26] | > 125 µM | 70.9 µM | –
9 | CCCC(C(=O)O)c1c(C)nc(N2CCCC2)nc1-c1ccc(C)cc1 (centres unmarked) [cpd 30] | 143 µM | 16.1 µM | 4.61 µM
10 | CCCC(C(=O)O)c1c(C)nc(N2CCCC(C(=O)NCC(C)C)C2)nc1-c1ccc(C)cc1 (centres unmarked) [cpd 38] | 144 µM | 5.97 µM | 10.9 µM
11 | CCCC(C(=O)O)c1c(C)nc(N2CCCC(C)C2)nc1-c1ccc(C)cc1 (centres unmarked) [cpd 40] | 120 µM | 24.6 µM | 25.1 µM
12 | CCCC(C(=O)O)c1c(C)nc(N2CCCN(CC)CC2)nc1-c1ccc(C)cc1 (centres unmarked) [cpd 56] | > 250 µM | 101 µM | 73.8 µM
13 | CCCC(C(=O)O)c1c(C)nc(N2CCc3ccccc32)nc1-c1ccc(C)cc1 (centres unmarked) [cpd 58] | 38.7 µM | 2.91 µM | 17.9 µM
14 | CCCC(C(=O)O)c1c(C)nc(-c2ccccc2)nc1N1CCCCC1 (centres unmarked) [cpd 60] | 61 µM | 13.2 µM | 4.71 µM
15 | CCCC(C(=O)O)c1c(C)nc(-c2ccccc2)nc1N1CCCCCC1 (centres unmarked) [cpd 62] | 131 µM | 29.8 µM | 6.71 µM
16 | CCCC(C(=O)O)c1c(C)nc(-c2ccccc2)nc1N1CCN(C)CC1 (centres unmarked) [cpd 64] | > 250 µM | 197 µM | –
17 | CCCC(C(=O)O)c1c(C)nc(-c2ccccc2)nc1-c1ccc2c(c1)CCO2 (centres unmarked) [cpd 70] | 90 µM | 42.1 µM | 14.9 µM
18 | CCCC(C(=O)O)c1c(C)nc(-c2ccccc2)nc1-c1ccc2occc2c1 (centres unmarked) [cpd 72] | 110 µM | 46.3 µM | 14.7 µM
19 | CCCC(C(=O)O)c1c(C)nc(-c2ccccc2)nc1-c1ccc(Cl)cc1F (centres unmarked) [cpd 94] | 81 µM | 19 µM | 7.25 µM

Row | SMILES | CC50 [1] | EC50 (HIV (MT4-IIIB)) | IC50 [2]
20 | CCCC(C(=O)O)c1c(C)nc(-c2ccccc2)nc1-c1ccc(C)cc1F (centres unmarked) [cpd 98] | 113 µM | 35.9 µM | 13.5 µM
21 | CCCC(C(=O)O)c1c(C)nc(-c2ccccc2)nc1-c1ccc(Cl)cc1 (centres unmarked) [cpd 102] | 143 µM | 13.4 µM | 13.4 µM
22 | CCCC(C(=O)O)c1c(C)nc(-c2ccccc2)nc1-c1ccc(Cl)cc1O (centres unmarked) [cpd 111] | 97 µM | 26.4 µM | 1.97 µM
23 | CCCC(C(=O)O)c1c(C)nc(-c2ccccc2)nc1-c1ccc(C)cc1O (centres unmarked) [cpd 119] | 120 µM | 29.4 µM | 21.9 µM
24 | COCCC(C(=O)O)c1c(C)nc(N2CCCCC2)nc1-c1ccc(C)cc1 (centres unmarked) [cpd 122] | > 250 µM | 21.5 µM | 59.7 µM
25 | Cc1ccc(-c2nc(N3CCCCC3)nc(C)c2C(CCCC(F)(F)F)C(=O)O)cc1 (centres unmarked) [cpd 124] | 124 µM | 5.3 µM | 19.7 µM
26 | CCCC(C(=O)O)c1c(C)nc(N2CCCCC2)nc1-c1ccc(F)cc1F (centres unmarked) [cpd 130] | 99 µM | 22.7 µM | 17.4 µM
27 | CCCC(C(=O)O)c1c(C)nc(N2CCCCC2)nc1-c1ccc(C)cc1C (centres unmarked) [cpd 132] | 84.5 µM | 30.2 µM | 22.9 µM
28 | CCCC(C(=O)O)c1c(C)nc(N2CCCCC2)nc1-c1ccc(OC)cc1F (centres unmarked) [cpd 136] | 127 µM | 49 µM | 20.7 µM
29 | CCCC(C(=O)O)c1c(C)nc(N2CCCCC2)nc1-c1cc(F)c(F)cc1F (centres unmarked) [cpd 142] | 79 µM | – | 50.5 µM
30 | CCCC(C(=O)O)c1c(C)nc(N2CCCCC2)nc1-c1ccc(C)cc1Cl (centres unmarked) [cpd 144] | 72.5 µM | 7.93 µM | 5.92 µM
31 | CCCC(C(=O)O)c1c(C)nc(N2CCCCC2)nc1-c1ccc(Cl)cc1F (centres unmarked) [cpd 146] | 72 µM | 9.38 µM | 10.8 µM
32 | CCCC(C(=O)O)c1c(C)nc(N2CCCCC2)nc1N1CCCCC1 (centres unmarked) [cpd 148] | 138 µM | 18.1 µM | 34.1 µM
33 | Cc1ccc(-c2nc(N3CCCCC3)nc(C)c2C(CC(C)(C)C)C(=O)O)cc1 (centres unmarked) [cpd 152] | 72 µM | 3.48 µM | 6.9 µM
34 | Cc1ccc(-c2nc(N3CCCCC3)nc(C)c2C(OC(C)(C)C)C(=O)O)cc1 (centres unmarked) [cpd 154] | 118 µM | 1.06 µM | –
35 | CCCC(C(=O)O)c1c(C)nc(-c2ccccc2O)nc1-c1ccc(C)cc1 (centres unmarked) [cpd 158] | 119 µM | 17.8 µM | –
36 | CCCC(C(=O)O)c1c(C)nc(-c2cnn(C)c2)nc1-c1ccc(C)cc1 (centres unmarked) [cpd 162] | > 250 µM | 72.1 µM | –
37 | CCCC(C(=O)O)c1c(C)nc(NCc2ccccc2)nc1-c1ccc(C)cc1 (centres unmarked) [cpd 168] | 128 µM | 23.9 µM | –
38 | CCCC(C(=O)O)c1c(C)nc(NCC(C)(C)C)nc1-c1ccc(C)cc1 (centres unmarked) [cpd 174] | 155 µM | 25 µM | –
